The text below walks through data of PMC6627609, “Targeting Quorum Sensing: High-Throughput Screening to Identify Novel LsrK Inhibitors” (International Journal of Molecular Sciences, 2019).

Structures can show the parent of a compound that is named as a salt.

In one assay the target is LsrK (Salmonella typhimurium, UniProt Q8ZKQ6). The experiment in a line: biochemical.
LsrK, sequence (Q8ZKQ6 whole entry): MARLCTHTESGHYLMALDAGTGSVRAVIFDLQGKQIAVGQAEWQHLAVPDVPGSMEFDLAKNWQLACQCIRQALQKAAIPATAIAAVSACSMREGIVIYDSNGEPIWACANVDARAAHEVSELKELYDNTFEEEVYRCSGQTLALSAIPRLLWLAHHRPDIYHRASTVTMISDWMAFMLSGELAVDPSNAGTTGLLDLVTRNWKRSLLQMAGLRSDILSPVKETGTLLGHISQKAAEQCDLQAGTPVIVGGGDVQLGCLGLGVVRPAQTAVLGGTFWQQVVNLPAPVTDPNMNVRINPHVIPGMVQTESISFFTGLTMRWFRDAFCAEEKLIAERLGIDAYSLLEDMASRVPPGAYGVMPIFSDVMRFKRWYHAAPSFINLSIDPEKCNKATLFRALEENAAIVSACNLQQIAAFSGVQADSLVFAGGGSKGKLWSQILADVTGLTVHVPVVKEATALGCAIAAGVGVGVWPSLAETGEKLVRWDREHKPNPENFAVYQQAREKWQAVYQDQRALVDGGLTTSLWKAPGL
Details: not given
Type of assay: biochemical, S. typhimurium.
Take `O=C1C=CC(=O)c2c(O)cccc21` [JUGLONE]: the inhibition (usually the relative decrease from the control value, in per cent) at 50 µM is 88%. The same measure, in the same setting: in the case of `O=c1c(O)c(-c2ccc(O)cc2)oc2cc(O)cc(O)c12` [KAEMPFEROL] it was 0%; in that of `COC1=CC(=O)O[C@@H](/C=C/c2ccccc2)C1` [KAWAIN], 0%. Same read-out and setting: with `O=C(c1ccccc1)c1ccc2n1CCC2C(=O)O` (centres unmarked) [KETOROLAC TROMETHAMINE] the figure was 0%.

As for `CN1CCC(=C2c3ccccc3CC(=O)c3sccc32)CC1` [KETOTIFEN FUMARATE], the inhibition at 50 µM is 1%. Same read-out and setting: with `OC[C@H]1O[C@@H](n2cnc3c(NCc4ccco4)ncnc32)[C@H](O)[C@@H]1O` [KINETIN RIBOSIDE] the figure was 0%; with `CC1(C)C[C@@H]2C(=O)CC[C@H]3O[C@]3(C)CC[C@H]21` [KOBUSONE], 1%. Same read-out and setting: in the case of `COc1ccc(-c2coc3cc(O)ccc3c2=O)c(O)c1O` [KOPARIN] it was 118%.

As for `Cc1c(OCC(F)(F)F)ccnc1C[S+]([O-])c1nc2ccccc2[nH]1` (centres unmarked) [LANSOPRAZOLE], the inhibition at 50 µM worked out at 33%. The same measure, in the same setting: in the case of `CC(C)=CCC1=C(O)C(=O)c2ccccc2C1=O` [LAPACHOL] it was 1%; in that of `Cc1cc(OC(=O)c2c(C)cc(O)cc2O)cc(O)c1C(=O)O` [LECANORIC ACID], 0%; in that of `COC(=O)c1c(C)c2c(c(C)c1O)OC(=O)c1c(C)c(Cl)c(O)c(Cl)c1O2` [LEOIDIN], 83%. The same measure, in the same setting: in the case of `Nc1nc2c(c(=O)[nH]1)N(C=O)C(CNc1ccc(C(=O)N[C@@H](CCC(=O)O)C(=O)O)cc1)CN2` (some centres unmarked) [LEUCOVORIN CALCIUM] it was 5%; in that of `CC(C)(C)NC[C@H](O)c1ccc(O)c(CO)c1` [LEVALBUTEROL HYDROCHLORIDE], 8%; in that of `c1ccc([C@H]2CN3CCSC3=N2)cc1` [LEVAMISOLE HYDROCHLORIDE], 1%. The same measure, in the same setting: in the case of `N[C@@H](Cc1ccc(O)c(O)c1)C(=O)O` [LEVODOPA] it was 77%. Consider `C[C@H](N)[C@H](O)c1ccc(O)c(O)c1` [LEVONORDEFRIN], for which the inhibition at 50 µM is 123%. The same measure, in the same setting: in the case of `CCC[C@@H]1C[C@@H](C(=O)N[C@@H]([C@H]2O[C@H](SC)[C@H](O)[C@@H](O)[C@H]2O)[C@@H](C)O)N(C)C1` [LINCOMYCIN HYDROCHLORIDE] it was 0%; in that of `CCCCCc1c2c(cc(O)c1C(=O)O)OC(=O)c1c(cc(OC)cc1C(=O)CCCC)O2` [LOBARIC ACID], 98%; in that of `CN1[C@@H](CC(=O)c2ccccc2)CCC[C@H]1C[C@H](O)c1ccccc1` [LOBELINE HYDROCHLORIDE], 1%. Same read-out and setting: with `CCn1cc(C(=O)O)c(=O)c2cc(F)c(N3CCNC(C)C3)c(F)c21` (centres unmarked) [LOMEFLOXACIN HYDROCHLORIDE] the figure was 0%. On the same count and under the same terms, in the case of `CCOC(=O)N1CCC(=C2c3ccc(Cl)cc3CCc3cccnc32)CC1` [LORATADINE] it was 2%; in that of `O=C(NC(=O)c1c(F)cccc1F)Nc1cc(Cl)c(OC(F)(F)C(F)C(F)(F)F)cc1Cl` (centres unmarked) [LUFENURON], 2%.

The assay is the same for the next values; noted with them: 50 µM.
On to `C[C@H]1O[C@H](OC2[C@@H](O)[C@@H](O)C(O)[C@H](O)[C@H]2O)[C@@H](N)C[C@@H]1N=C(N)C(=O)O.Cl` (some centres unmarked) [KASUGAMYCIN HYDROCHLORIDE], for which the “Inhibition (%)” value came out at 1. Same read-out and setting: with `CCCCS(=N)(=O)CCC(N)C(=O)O` [L-BUTHIONINE SULFOXIMINE] the figure was 20; with `CC(=O)O[C@H]1CC[C@]2(C)C3=C(CC[C@H]2C1(C)C)[C@]1(C)CC[C@H]([C@H](C)CCC=C(C)C)[C@@]1(C)CC3` [LANOSTEROL ACETATE], 1. Still for that read-out and setting: with `Cc1occc(=O)c1O` [LARIXINIC ACID] the figure was 1; with `C=C[C@@](C)(O)CC[C@H]1C(=C)C[C@H](OC(C)=O)[C@H]2C(C)(C)CCC[C@]12C` [LARIXOL ACETATE], 3; with `C=C[C@@](C)(O)CC[C@H]1C(=C)C[C@H](O)[C@H]2C(C)(C)CCC[C@]12C` [LARIXOL], 1.
